{
  "source": "paper PMC9598282",
  "about": "(Antibiotics, 2022)",
  "key": {"[1]": {"system": "P. aeruginosa P259-96918", "format": "cell-based, Pseudomonas aeruginosa", "conditions": "colistin-susceptible MDR isolate", "description": "(§1) For the preparation of the bacterial solution, overnight grown culture was diluted in 0.85% saline solution, adjusted to 0.5 McFarland turbidity and further diluted in Mueller–Hinton broth for inoculation to a final concentration of 5 × 10^5 colony forming units/mL (CFU/mL). The agents were serially diluted two-fold in a 96-well plate, and equal volumes of bacterial solution were subsequently added to the designated wells. The well consisting of bacterial solution served as the positive control, while the well containing only media served as the negative control. The plate was then incubated at 37 °C for 18 h. After incubation, an Emax Plus microplate reader (Molecular Devices, Union City, CA, USA) was used to measure the optical density (OD) at a wavelength of 590 nm to confirm the turbidity. The antibacterial activity corresponded to the MIC, which is defined as the lowest concentration of the agent necessary to inhibit visible bacterial growth."}, "[2]": {"system": "P. aeruginosa P262-101856", "format": "cell-based, Pseudomonas aeruginosa", "conditions": "colistin-susceptible MDR isolate", "description": "as §1"}, "[3]": {"system": "P. aeruginosa 114228", "format": "cell-based, Pseudomonas aeruginosa", "conditions": "colistin-resistant isolate", "description": "as §1"}, "[4]": {"system": "P. aeruginosa 101243", "format": "cell-based, Pseudomonas aeruginosa", "conditions": "colistin-resistant isolate", "description": "as §1"}, "[5]": {"system": "P. aeruginosa PAO1", "format": "cell-based, Pseudomonas aeruginosa", "conditions": "wild-type", "description": "as §1"}, "[6]": {"system": "P. aeruginosa P264-104354", "format": "cell-based, Pseudomonas aeruginosa", "conditions": "colistin-susceptible MDR isolate", "description": "as §1"}, "[7]": {"system": "E. coli ATCC 25922", "format": "cell-based, Escherichia coli", "conditions": "wild-type", "description": "as §1"}, "[8]": {"system": "E. coli 107115", "format": "cell-based, Escherichia coli", "conditions": "colistin-susceptible MDR isolate", "description": "as §1"}, "[9]": {"system": "E. coli 94474", "format": "cell-based, Escherichia coli", "conditions": "colistin-resistant isolate", "description": "as §1"}, "[10]": {"system": "E. coli 94393", "format": "cell-based, Escherichia coli", "conditions": "colistin-resistant isolate", "description": "as §1"}, "[11]": {"system": "P. aeruginosa PA 109084", "assay": "MIC, broth microdilution", "format": "cell-based, Pseudomonas aeruginosa", "conditions": "β-lactamase harboring isolate", "description": "as §1"}, "[12]": {"system": "P. aeruginosa PA 88949", "assay": "MIC, broth microdilution", "format": "cell-based, Pseudomonas aeruginosa", "conditions": "β-lactamase harboring isolate", "description": "as §1"}, "[13]": {"system": "P. aeruginosa PA 86052", "assay": "MIC, broth microdilution", "format": "cell-based, Pseudomonas aeruginosa", "conditions": "β-lactamase harboring isolate", "description": "as §1"}, "[14]": {"system": "P. aeruginosa PA 107092", "assay": "MIC, broth microdilution", "format": "cell-based, Pseudomonas aeruginosa", "conditions": "β-lactamase harboring isolate", "description": "as §1"}, "[15]": {"system": "E. cloacae 121187", "format": "cell-based, Enterobacter cloacae", "conditions": "colistin-resistant isolate", "description": "as §1"}, "[16]": {"system": "E. cloacae 118564", "format": "cell-based, Enterobacter cloacae", "conditions": "colistin-resistant isolate", "description": "as §1"}, "[17]": {"system": "K. pneumoniae 113254", "format": "cell-based, Klebsiella pneumoniae", "conditions": "colistin-resistant isolate", "description": "as §1"}, "[18]": {"system": "K. pneumoniae 113250", "format": "cell-based, Klebsiella pneumoniae", "conditions": "colistin-resistant isolate", "description": "as §1"}, "[19]": {"system": "A. baumannii ATCC 17978", "format": "cell-based, Acinetobacter baumannii", "conditions": "wild-type", "description": "as §1"}, "[20]": {"system": "A. baumannii 92247", "format": "cell-based, Acinetobacter baumannii", "conditions": "colistin-resistant isolate", "description": "as §1"}, "[21]": {"system": "A. baumannii LAC-4", "format": "cell-based, Acinetobacter baumannii", "conditions": "colistin-susceptible MDR isolate", "description": "as §1"}, "[22]": {"system": "A. baumannii AB027", "format": "cell-based, Acinetobacter baumannii", "conditions": "colistin-susceptible MDR isolate", "description": "as §1"}, "[23]": {"system": "A. baumannii 110193", "format": "cell-based, Acinetobacter baumannii", "conditions": "colistin-susceptible MDR isolate", "description": "as §1"}, "[24]": {"system": "Hep G2 cells", "assay": "Cell viability assay (PrestoBlue)", "format": "cell-based, human", "conditions": "48 h", "description": "(§2) The cytotoxicity of the guanidinylated polymyxins was evaluated using the cell viability assay as previously described. Human embryonic kidney cells (HEK293) and liver carcinoma cells (Hep G2) were cultured in flasks with Dulbecco’s Modified Eagle’s Medium (DMEM) supplemented with 10% fetal bovine serum. The cells were incubated at 5% CO2 in a humidified atmosphere at 37 °C. Equal volumes of media (50 μL) containing approximately 8000 cells (Hek293) or 5000 cells (HepG2) were added to wells in 96-well plates. The wells containing only media with no cells served as blanks. The plate was incubated for 24 h. Double the final desired concentrations of the agent were subsequently added to each well (experimental and blanks) in a volume of 50 μL. After 48 h incubation, PrestoBlue reagent from Invitrogen (Waltham, MA, USA,) was added to a final concentration of 10% (v/v), and plates were incubated for an additional1 h at 5% CO2. Fluorescence (excitation/emission, 560/590 nm) was measured with a SpectraMax M2 plate reader (Molecular Devices, United States). Values from the blank wells were subtracted from the corresponding wells with cells. The cell viability relative to the controls with a vehicle was calculated. The plots indicate the mean ± standard deviation of two experiments with five samples each. […]"}, "[25]": {"system": "HEK293 cells", "assay": "Cell viability assay (PrestoBlue)", "format": "cell-based, human", "conditions": "48 h", "description": "as §2"}},
  "data": [
    {"substance": "polymyxin B [PMB]", "values": [
      {"measurement": "MIC", "setting": "[1]", "result": "≤0.0625", "unit": "µg/mL"},
      {"measurement": "MIC", "setting": "[2]", "result": 0.5, "unit": "µg/mL"},
      {"measurement": "MIC", "setting": "[3]", "result": 64, "unit": "µg/mL"},
      {"measurement": "MIC", "setting": "[4]", "result": ">128", "unit": "µg/mL"},
      {"measurement": "MIC", "setting": "[5]", "result": 0.5, "unit": "µg/mL"},
      {"measurement": "MIC", "setting": "[6]", "result": 2, "unit": "µg/mL"},
      {"measurement": "MIC", "setting": "[7]", "result": 1, "unit": "µg/mL"},
      {"measurement": "MIC", "setting": "[8]", "result": "≤0.125", "unit": "µg/mL"},
      {"measurement": "MIC", "setting": "[9]", "result": 16, "unit": "µg/mL"},
      {"measurement": "MIC", "setting": "[10]", "result": 2, "unit": "µg/mL"},
      {"measurement": "MIC", "setting": "[11]", "result": 0.25, "unit": "µg/mL"},
      {"measurement": "MIC", "setting": "[12]", "result": 0.5, "unit": "µg/mL"},
      {"measurement": "MIC", "setting": "[13]", "result": 0.25, "unit": "µg/mL"},
      {"measurement": "MIC", "setting": "[14]", "result": 0.25, "unit": "µg/mL"},
      {"measurement": "MIC", "setting": "[15]", "result": ">64", "unit": "µg/mL"},
      {"measurement": "MIC", "setting": "[16]", "result": ">64", "unit": "µg/mL"},
      {"measurement": "MIC", "setting": "[17]", "result": ">64", "unit": "µg/mL"},
      {"measurement": "MIC", "setting": "[18]", "result": ">64", "unit": "µg/mL"},
      {"measurement": "MIC", "setting": "[19]", "result": 2, "unit": "µg/mL"},
      {"measurement": "MIC", "setting": "[20]", "result": 8, "unit": "µg/mL"},
      {"measurement": "MIC", "setting": "[21]", "result": 0.5, "unit": "µg/mL"},
      {"measurement": "MIC", "setting": "[22]", "result": 0.25, "unit": "µg/mL"},
      {"measurement": "MIC", "setting": "[23]", "result": 1, "unit": "µg/mL"},
      {"measurement": "concentration up to which Hep G2 cells maintained 100% viability", "setting": "[24]", "result": 25, "unit": "µM"},
      {"measurement": "concentration up to which HEK293 cells maintained >90% viability", "setting": "[25]", "result": 125, "unit": "µM"}
    ]}
  ]
}
